In patent US10993943B2, “Crystalline forms of selinexor and process for their preparation” (WATSON LABORATORIES INC., priority 2017, dated 2021):

Test: Solubility in aqueous medium (buffers at pH 1.2, 4.5, 6.8)
Type: physicochemical
Settings: Form T8 in comparison with Form A

Row | solubility in aqueous medium (pH 4.5 (acetate buffer)) | solubility in aqueous medium (pH 6.8 (phosphate buffer)) | solubility in aqueous medium (pH=1.2 (HCl buffer)) | SMILES
1 | enhanced solubility | enhanced solubility | enhanced solubility | O=C(/C=C\n1cnc(-c2cc(C(F)(F)F)cc(C(F)(F)F)c2)n1)NNc1cnccn1 [Form T8, (Z)-3-(3-(3,5-bis(trifluoromethyl)phenyl)-1H-1,2,4-triazol-1-yl)-N′-(pyrazin-2-yl) acrylohydrazide]
2 | practically insoluble | practically insoluble | practically insoluble | O=C(/C=C\n1cnc(-c2cc(C(F)(F)F)cc(C(F)(F)F)c2)n1)NNc1cnccn1 [Form A, (Z)-3-(3-(3,5-bis(trifluoromethyl)phenyl)-1H-1,2,4-triazol-1-yl)-N′-(pyrazin-2-yl) acrylohydrazide]
